From patent US12448359B2, “Compounds with immunomodulatory activity and therapeutic uses thereof” (Purdue Research Foundation, priority 2020, dated 2025)

Molecular target: PD-1/PD-L1 interaction (Homo sapiens (Human), UniProt Q9NZQ7)
Test: PD1/PD-L1 HTRF assay (Cisbio kit), inhibition of PD-1/PD-L1 interaction
Type: binding
Conditions: for inhibition to PD-1/PD-L1 interaction (in words): HTRF assay; for IC50 value / IC50: HTRF, inhibition of PD-1/PD-L1 interaction, 4PL fit
Description: Briefly, 2 μL of the compound, 4 μL from a 25 nM Tagl-PD-L1 protein solution and 4 μL from a 250 nM Tag2-PD1 protein were added into a Cisbio's HTRF 96-well low volume white plate. Then, the plate was incubated for 15 minutes at room temperature. Next, 10 μL from pre-mixed anti-tag detection reagents (5 μL from 1X anti-Tagl-Eu^3+ and 5 μL from 1X anti-Tag2-XL665) were added and the sealed plate was incubated for 2 hours at room temperature. Finally, the plate sealer was removed, and measurements were taken using a HTRF® compatible reader. This protocol used 12 different concentrations of each compound where the maximum and minimum assay concentrations are 10,000 nM and 0.001 nM respectively.
To calculate ΔF/ΔFmax, first the HTRF ratio is calculated as follows;
A multiplication factor of 10000 factor was used to not deal with decimal values that improves data accuracy during calculation. The AR ratio indicating “specific signal” of the compound disrupting the PD-1/PD-L1 interaction was calculated by subtracting background HTRF ratio (negative DMSO control in our work) from each compound (sample) HTRF ratio as follows; ΔR=HTRF ratio (sample)−HTRF ratio (background)
Next, data normalization was done to minimize variation in values on different days, different plate reader instruments, or if the assay was done by different individuals. The normalization was done with respect to the background HTRF ratio and was calculated as follows;
Finally, the ΔF/ΔFmax ratio was calculated to enable comparison of values between multiple experiments.
[formula] wherein ΔF max is taken as the ΔF of the positive DMSO control in the assay.
The IC50 value for PD-1/PD-L1 inhibition was determined by analyzing the log of the concentration—response curves to fit a sigmoid curve with four-parameter logistic (4PL) regression using the GraphPad Prism Software version 8.3.0 for Windows, GraphPad Software, La Jolla California USA, www.graphpad.com. Following equation defines the regression curve.
[formula] wherein X=Log of concentration, Y=Response ΔF/ΔFmax, Top and Bottom=Plateaus in same units as Y, LogIC50=Same log units as X, HillSlope=Slope factor or Hill Slope, Unitless. Using the above equation, LogIC50, is calculated to obtain the IC50 value for each compound. The HTRF_IC50_Data.xlsx data file with all replicates is provided as a Supporting File for use in GraphPad Prism Software to calculate IC50 values.

Sequence of PD-1/PD-L1 interaction (Q9NZQ7 19-238): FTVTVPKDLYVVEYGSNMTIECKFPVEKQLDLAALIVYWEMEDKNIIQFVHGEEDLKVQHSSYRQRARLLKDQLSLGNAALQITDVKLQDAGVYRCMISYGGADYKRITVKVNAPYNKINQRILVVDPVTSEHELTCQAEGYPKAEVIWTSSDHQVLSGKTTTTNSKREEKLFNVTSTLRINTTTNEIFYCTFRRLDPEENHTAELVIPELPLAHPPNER

| inhibition to PD-1/PD-L1 interaction (in words) | Structure (SMILES) | IC50 value | IC50 [nM] |
| --- | --- | --- | --- |
| no/poor inhibition | COc1cc(OCc2cccc(-c3ccccc3)c2C)cc(OC)c1CNC(CC(F)(F)F)c1ccccc1 (stereo not shown) [Compound 4c, N-(2,6-dimethoxy-4-((2-methyl-[1,1′-biphenyl]-3-yl)methoxy)benzyl)-3,3,3-trifluoro-1-phenylpropan-1-amine] | no inhibition |  |
|  | COc1cc(OCc2cccc(-c3ccc4c(c3)OCCO4)c2C)cc(OC)c1CN[C@H](CO)C(=O)O [Compound 4b] |  | 340 |
| no/poor inhibition | COc1cc(OCc2cccc(-c3ccccc3)c2C)cc(OC)c1CN1CCC[C@H](C(=O)O)C1 [Compound 4e, (S)-1-(2,6-dimethoxy-4-((2-methyl-[1,1′-biphenyl]-3-yl)methoxy)benzyl)piperidine-3-carboxylic acid] |  | 1260 |

| Structure (SMILES) | inhibition to PD-1/PD-L1 interaction (in words) | IC50 value | IC50 [nM] |
| --- | --- | --- | --- |
| C#C[C@]1(O)CC[C@H]2[C@@H]3[C@H](C)CC4=CC(=O)CCC4[C@H]3CC[C@@]21C (stereo partly drawn) [Compound 4d, (7R,8R,9S,13S,14S,17R)-17-ethynyl-17-hydroxy-7,13-dimethyl-1,2,6,7,8,9,10,11,12,13,14,15,16,17-tetradecahydro-3H-cyclopenta[a]phenanthren-3-one] | no/poor inhibition | no inhibition |  |
